Data published in patent publication US20160046573A1, “IDENTIFYING PATIENT RESPONSE TO S1P RECEPTOR MODULATOR ADMINISTRATION” (Novartis AG, priority 2013, published 2016).

What was measured:
Assay in all cases: Enzyme mapping: metabolite formation by recombinant P450 isoenzyme
Type in all cases: in vitro ADME
[1] = target: T1, CYP2C19 (Homo sapiens, UniProt P33261); settings: for Metabolism Rate: 30 pmol/mL, 30 min
T1 construct: purchased BD Biosciences 456259; host or cells: baculovirus infected insect cells (BTI-TN-5B1-4)
T1 sequence (P33261 whole entry): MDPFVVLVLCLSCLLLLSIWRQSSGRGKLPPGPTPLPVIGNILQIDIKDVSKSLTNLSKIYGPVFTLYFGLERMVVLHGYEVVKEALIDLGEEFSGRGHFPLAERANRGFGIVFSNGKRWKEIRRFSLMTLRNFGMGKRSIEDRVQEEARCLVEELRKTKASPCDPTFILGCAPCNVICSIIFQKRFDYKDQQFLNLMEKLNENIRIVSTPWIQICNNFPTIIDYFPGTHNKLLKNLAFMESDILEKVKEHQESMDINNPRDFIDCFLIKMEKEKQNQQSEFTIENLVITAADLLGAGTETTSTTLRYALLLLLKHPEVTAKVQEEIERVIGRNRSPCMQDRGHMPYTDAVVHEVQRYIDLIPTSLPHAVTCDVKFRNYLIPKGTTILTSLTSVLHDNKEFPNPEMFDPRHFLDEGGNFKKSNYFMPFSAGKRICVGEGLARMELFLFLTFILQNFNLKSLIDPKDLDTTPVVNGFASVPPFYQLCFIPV
Protocol: (§1) Microsomes prepared from baculovirus infected insect cells (BTI-TN-5B1-4) expressing the following human P450 enzymes and the insect cell membrane preparations (negative control) were obtained from BD Biosciences (Woburn, Mass., USA).
(§2) The final concentrations are given in parentheses.
(§3) After 30 min at −80° C. […] The supernatant was withdrawn. […] Sample solutions were analyzed by HPLC combined with radiodetection. (for HLPC method, see Section 1.6)
(§4) Mean specific CYP enzyme concentrations in human liver microsomes were obtained from literature values (Rowland Yeo K, Rostami-Hodjegan A and Trucker GT (2004)] Abundance of cytochromes P450 in human liver: a meta-analysis. Br. J. Clinical Pharmacology; 57:687-688). For some recombinant human CYPs, the enzyme kinetic parameters were estimated by calculation assuming Michaelis-Menten type behavior for the two concentrations used, solving a linear equation system for 2 linear equations with 2 variables: […]
(§5) Microsomes prepared from baculovirus infected insect cells (BTI-TN-5B1-4) expressing one single human cytochrome P450 isoenzyme were used to assess the involvement of specific enzymes in the biotransformation of [14C]BAF312. Incubation experiments with a panel of 21 recombinant human CYPs (CYP1A1, 1A2, 1B1, 2A6, 2B6, 2C8, 2C9*1, 2C18, 2C19, 2D6*1, 2E1, 2J2, 3A4, 3A5, 3A7, 4A11, 4F2, 4F3A, 4F3B, 4F12 and CYP19) were conducted under similar conditions for each isoenzyme with 10 and 40 μM BAF312 incubation and 30 pmol CYP/mL for 30 min. […] Lower metabolism activities were also observed in incubation with CYP3A4, while some trace metabolism was detected with other CYP isoenzymes (2B6, 2C8, 2C19, 2J2, 3A5, 1A1).

[2] = target: T2, CYP2C8 (Homo sapiens, UniProt P10632); settings: for Metabolism Rate: 30 pmol/mL, 30 min
T2 construct: purchased BD Biosciences 456252; host or cells: baculovirus infected insect cells (BTI-TN-5B1-4)
T2 sequence (P10632 1-490): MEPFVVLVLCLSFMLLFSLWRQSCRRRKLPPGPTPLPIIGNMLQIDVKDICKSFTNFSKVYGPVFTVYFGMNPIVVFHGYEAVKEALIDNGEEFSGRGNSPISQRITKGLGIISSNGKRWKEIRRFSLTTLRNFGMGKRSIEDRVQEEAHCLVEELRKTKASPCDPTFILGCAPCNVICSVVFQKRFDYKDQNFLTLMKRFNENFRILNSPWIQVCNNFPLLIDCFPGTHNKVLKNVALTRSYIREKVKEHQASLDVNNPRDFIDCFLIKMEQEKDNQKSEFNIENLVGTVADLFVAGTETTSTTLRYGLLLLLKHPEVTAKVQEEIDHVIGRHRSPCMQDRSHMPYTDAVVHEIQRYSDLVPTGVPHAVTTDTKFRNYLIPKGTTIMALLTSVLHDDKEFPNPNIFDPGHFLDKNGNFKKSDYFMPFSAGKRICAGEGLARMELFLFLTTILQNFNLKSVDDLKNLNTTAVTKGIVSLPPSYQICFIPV
Protocol: as §1, §2, §3, §4, §5

[3] = target: T3, CYP1A1 (Homo sapiens, UniProt P04798); settings: 30 pmol/mL, 30 min
T3 construct: purchased BD Biosciences 456211; host or cells: baculovirus infected insect cells (BTI-TN-5B1-4)
T3 sequence (P04798 1-512): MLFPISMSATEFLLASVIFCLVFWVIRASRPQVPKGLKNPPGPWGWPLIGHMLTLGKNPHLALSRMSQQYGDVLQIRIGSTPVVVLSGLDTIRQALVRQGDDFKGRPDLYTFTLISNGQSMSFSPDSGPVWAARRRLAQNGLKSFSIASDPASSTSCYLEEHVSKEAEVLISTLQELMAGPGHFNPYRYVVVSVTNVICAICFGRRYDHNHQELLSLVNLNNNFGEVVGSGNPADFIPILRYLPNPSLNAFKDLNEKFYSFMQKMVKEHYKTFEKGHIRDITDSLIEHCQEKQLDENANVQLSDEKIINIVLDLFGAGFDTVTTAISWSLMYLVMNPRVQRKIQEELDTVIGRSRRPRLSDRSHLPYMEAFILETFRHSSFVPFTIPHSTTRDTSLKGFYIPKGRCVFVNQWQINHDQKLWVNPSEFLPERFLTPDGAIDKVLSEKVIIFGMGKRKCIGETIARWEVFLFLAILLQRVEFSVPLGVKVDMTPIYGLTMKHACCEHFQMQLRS
Protocol: as §1, §2, §3, §4, §5

[4] = target: T4, CYP2J2 (Homo sapiens, UniProt P51589); settings: 30 pmol/mL, 30 min
T4 construct: purchased BD Biosciences 456264; host or cells: baculovirus infected insect cells (BTI-TN-5B1-4)
T4 sequence (P51589 1-502): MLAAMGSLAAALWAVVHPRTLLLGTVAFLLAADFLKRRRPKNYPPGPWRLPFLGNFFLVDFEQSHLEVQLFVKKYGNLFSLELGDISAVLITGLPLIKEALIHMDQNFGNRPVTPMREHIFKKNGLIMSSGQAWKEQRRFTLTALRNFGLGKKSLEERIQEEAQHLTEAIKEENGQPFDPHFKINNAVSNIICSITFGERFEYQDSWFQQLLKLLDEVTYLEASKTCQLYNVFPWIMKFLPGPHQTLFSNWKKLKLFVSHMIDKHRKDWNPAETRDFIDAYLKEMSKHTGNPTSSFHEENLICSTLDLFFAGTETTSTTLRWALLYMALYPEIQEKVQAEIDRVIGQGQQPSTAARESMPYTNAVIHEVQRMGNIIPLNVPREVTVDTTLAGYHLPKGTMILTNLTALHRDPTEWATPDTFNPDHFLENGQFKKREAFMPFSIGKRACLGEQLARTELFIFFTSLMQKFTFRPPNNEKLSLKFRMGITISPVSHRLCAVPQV
Protocol: as §1, §2, §3, §4, §5

CCc1cc(/C(C)=N/OCc2ccc(C3CCCCC3)c(C(F)(F)F)c2)ccc1CN1CC(C(=O)O)C1 [BAF312, 1-{4-[1-(4-cyclohexyl-3-trifluoromethyl-benzyloxyimino)-ethyl]-2-ethyl-benzyl}-azetidine-3-carboxylic acid]
Metabolism Rate ([1]; 10 μM BAF312): 6.7 pmol/min/nmol CYP 450 | Metabolism Rate ([1]; 40 μM BAF312): 22.2 pmol/min/nmol CYP 450 | Contribution (% total Rel. CL) ([1]; CYP 2C19, metabolic clearance in human liver microsomes): 0.1% | Rel. CL ([1]; CYP 2C19, relative to abundance in human liver microsomes): 0.02 μl/(min · nmol total CYP) | Metabolism Rate ([2]; 10 μM BAF312): 11.1 pmol/min/nmol CYP 450 | Metabolism Rate ([2]; 40 μM BAF312): 13.3 pmol/min/nmol CYP 450 | Contribution (% total Rel. CL) ([2]; CYP 2C8, metabolic clearance in human liver microsomes): 1.7% | Rel. CL ([2]; CYP 2C8, relative to abundance in human liver microsomes): 0.22 μl/(min · nmol total CYP) | Metabolism Rate ([3]; 10 μM BAF312): 13.3 pmol/min/nmol CYP 450 | Metabolism Rate ([3]; 40 μM BAF312): 28.9 pmol/min/nmol CYP 450 | Metabolism Rate ([4]; 10 μM BAF312): 2.8 pmol/min/nmol CYP 450 | Metabolism Rate ([4]; 40 μM BAF312): 8.9 pmol/min/nmol CYP 450
